This note sets out measurements from patent publication US9000008B2, “Amides of acetic and propionic acids” (Bayer Intellectual Property GmbH, priority 2002, dated 2015).

The target in the assay is α7 nAChR (Rattus norvegicus (Rat), UniProt Q05941). In words: [3H]-methyllycaconitine binding assay, rat brain membranes. To be noted: inhibition of [3H]-methyllycaconitine binding to rat brain membranes; Ki=IC50/(1+L/KD). The protocol:
1. Determination of the Affinity of Test Substances for α7 nAChR by Inhibition of [^3H]-Methyllycaconitine Binding to Rat Brain Membranes
The [^3H]-methyllycaconitine binding assay is a modification of the method described by Davies et al. (Neuropharmacol. 1999, 38, 679-690).
Rat brain tissue (hippocampus or whole brain) is homogenized in homogenization buffer (10% w/v). [0.32 M sucrose, 1 mM EDTA; 0.1 mM phenylmethylsulfonyl fluoride (PMSF), 0.01% (w/v) NaN3, pH 7.4, 4° C.] at 600 rpm in a glass homogenizer. The homogenate is centrifuged (1000×g, 4° C., 10 min) and the supernatant is removed. The pellet is resuspended (20% w/v) and the suspension is centrifuged (1000×g, 4° C., […]). The two supernatants are combined and centrifuged (15 000×g, 4° C., 30 min). The pellet obtained in this way is referred to as the P2 fraction.
The P2 pellet is washed twice with binding buffer (50 mM Tris-HCl, 1 mM MgCl2, 120 mM NaCl, 5 mM KCl, 2 mM CaCl2, pH 7.4), and centrifuged (15 000×g, 4° C., 30 min).
The P2 membranes are resuspended in binding buffer and incubated in a volume of 250 μl (amount of membrane protein 0.1-0.5 mg) in the presence of 1-5 nM [^3H]methyllycaconitine, 0.1% (w/v) BSA (bovine serum albumin) and various concentrations of the test substance at 21° C. for 2.5 h. The non-specific binding is determined by incubation in the presence of 1 μM α-bungarotoxin or 100 μM nicotine or 10 μM MLA (methyllycaconitine).
The incubation is stopped by adding 4 ml of PBS (20 mM Na2HPO4, 5 mM KH2PO4, 150 mM NaCl, pH 7.4, 4° C.) and filtering through type A/E glass fiber filters (Gelman Sciences) which have previously been placed in 0.3%. (v/v) polyethyleneimine (PEI) for 3 h. The filters are washed twice with 4 ml of PBS (4° C.), and the bound radioactivity is determined by scintillation measurement. All the assays are carried out in triplicate. The dissociation constant Ki of the test substance was determined from the IC50 of the compounds (concentration of the test substance at which 50% of the ligand bound to the receptor is displaced), the dissociation constant KD and the concentration L of [^3H]-methyllycaconitine using the equation Ki=IC50/(1+L/KD).

Structures are written as SMILES. Structures can show the parent of a compound that is named as a salt.

α7 nAChR, sequence (Q05941 23-502): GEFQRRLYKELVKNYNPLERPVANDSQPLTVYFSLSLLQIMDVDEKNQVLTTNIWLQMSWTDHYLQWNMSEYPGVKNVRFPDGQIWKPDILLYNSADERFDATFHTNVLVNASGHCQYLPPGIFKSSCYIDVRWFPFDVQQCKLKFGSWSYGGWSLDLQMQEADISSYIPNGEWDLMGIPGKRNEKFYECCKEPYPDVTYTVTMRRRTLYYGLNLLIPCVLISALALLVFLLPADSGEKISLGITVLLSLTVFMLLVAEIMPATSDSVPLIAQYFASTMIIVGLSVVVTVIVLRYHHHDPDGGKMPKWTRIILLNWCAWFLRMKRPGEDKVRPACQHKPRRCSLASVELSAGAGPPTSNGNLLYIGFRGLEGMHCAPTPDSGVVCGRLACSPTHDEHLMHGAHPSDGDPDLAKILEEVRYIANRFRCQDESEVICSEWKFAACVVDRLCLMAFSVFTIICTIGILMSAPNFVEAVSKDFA

What is called Ki is the equilibrium dissociation constant of an inhibitor or competing ligand from its target. A higher Ki goes with weaker binding. `O=C(CC1CN2CCC1CC2)Nc1cc2cccc(Br)c2s1` (stereo not shown) [Example 1, 2-(1-Azabicyclo[2.2.2]oct-3-yl)-N-(7-bromo-1-benzothien-2-yl)acetamide hydrochloride] had an inhibition constant Ki of 120 nM.

`O=C(CC1CN2CCC1CC2)Nc1ccc2ccccc2c1` (stereo not shown) [Example 4, 2-(1-Azabicyclo[2.2.2]oct-3-yl)-N-(2-naphthyl)acetamide hydrochloride] returned a Ki of 42 nM.

Molecule `O=C(CC1CN2CCC1CC2)Nc1ccc2cccnc2c1` (stereo not shown) [Example 3, 2-(1-Azabicyclo[2.2.2]oct-3-yl)-N-(7-quinolinyl)acetamide hydrochloride] came in with a Ki of 280 nM.

On to `O=C(CC1CN2CCC1CC2)Nc1ccc2cccc([N+](=O)[O-])c2c1` (stereo not shown) [Example 5, 2-(1-Azabicyclo[2.2.2]oct-3-yl)-N-(8-nitro-2-naphthyl)acetamide hydrochloride], for which the affinity corresponds to a Ki of 170 nM.
